# Assay results as given in ChEMBL document CHEMBL4808219, “Exploration of Benzo[b]carbazole-6,11-diones as anticancer agents: Synthesis and studies of hTopoIIα inhibition and apoptotic effects” (Bioorg Med Chem Lett, 2021).
# Activity calls are given as the source filed them. No cut-off for these calls is given here.
# Experiments:
# [1] = Downregulation of cyclinB1 protein expression in human MDA-MB-231cells assessed as fold change in cyclin B1 expression at IC50 after 48 hrs by Western blot analysis relative to control; format: functional
# [2] = Upregulation of p21 protein expression in human MDA-MB-231cells assessed as fold change in p21 expression at IC50 after 48 hrs by Western blot analysis relative to control; format: functional
# MDA-MB-231 [3] = test: Induction of apoptosis in human MDA-MB-231cells as increase in cleaved PARP1 level by measuring fold change in cleaved PARP1 expression by Western blot analysis relative to control; format: functional
# MDA-MB-231 [4] = test: Cytotoxicity against human MDA-MB-231 cells assessed as normal nuclei at 0.5 uM by DAPI staining based fluorescence microscopic analysis (reference value: 85.71 to 88.89%); format: functional
# [5] = Downregulation of NFkappaB protein expression in human MDA-MB-231cells assessed as fold change in NF-kB expression at IC50 after 48 hrs by Western blot analysis relative to control; format: functional
# [6] = Upregulation of cyclinD1 protein expression in human MDA-MB-231cells assessed as fold change in cyclin D1 expression at IC50 after 48 hrs by Western blot analysis relative to control; format: functional
# MDA-MB-231 [7] = test: Induction of apoptosis in human MDA-MB-231 cells assessed as late apoptotic cells at IC50 by Annexin V/FITC-propidium iodide staining-based flow cytometric method (reference value: 1.2 +/- 0.3 %); format: functional
# [8] = Cytotoxicity against human H357 cells assessed as reduction in cell viability incubated for 48 hrs by MTT assay; format: functional, cell-based; settings: Homo sapiens, H357, 48 h; read-out: IC50
# MDA-MB-231 [9] = test: Cytotoxicity against human MDA-MB-231 cells assessed as normal nuclei at 1.5 uM by DAPI staining based fluorescence microscopic analysis (reference value: 85.71 to 88.89%); format: functional
# MDA-MB-231 [10] = test: Induction of apoptosis in human MDA-MB-231 cells assessed as viable cells at IC50 by Annexin V/FITC-propidium iodide staining-based flow cytometric method (reference value: 87.2 +/- 0.7 %); format: functional
# MDA-MB-231 [11] = test: Cytotoxicity against human MDA-MB-231 cells assessed as normal nuclei at 2 uM by DAPI staining based fluorescence microscopic analysis (reference value: 85.71 to 95.83%); format: functional
# MDA-MB-231 [12] = test: Induction of apoptosis in human MDA-MB-231 cells assessed as early apoptotic cells at IC50 by Annexin V/FITC-propidium iodide staining-based flow cytometric method (reference value: 7.1 +/- 0.4 %); format: functional
# MDA-MB-231 [13] = test: Cytotoxicity against human MDA-MB-231 cells assessed as apoptotic nuclei at 1 uM by DAPI staining based fluorescence microscopic analysis (reference value: 4.17 to 14.29%); format: functional
# MDA-MB-231 [14] = test: Induction of apoptosis in human MDA-MB-231 cells assessed as necrotic cells at IC50 by Annexin V/FITC-propidium iodide staining-based flow cytometric method (reference value: 4.5 +/- 0.5 %); format: functional
# MDA-MB-231 [15] = test: Induction of apoptosis in human MDA-MB-231cells assessed as downregulation of Bcl-xl level by measuring fold change in Bcl-xl expression by Western blot analysis relative to control; format: functional
# MDA-MB-231 [16] = test: Cytotoxicity against human MDA-MB-231 cells assessed as apoptotic nuclei at 1.5 uM by DAPI staining based fluorescence microscopic analysis (reference value: 11.11 to 14.29%); format: functional
# [17] = Downregulation of CDC6 protein expression in human MDA-MB-231cells assessed as fold change in CDC6 expression at IC50 after 48 hrs by Western blot analysis relative to control; format: functional
# MDA-MB-231 [18] = test: Genotoxicity in human MDA-MB-231 cells assessed as induction of DNA damage at 2 uM incubated for 24 hrs by comet assay; format: functional, cell-based
# MCF-10A = test: Cytotoxicity against human MCF-10A cells; format: cell-based
# MDA-MB-231 [19] = test: Cell cycle arrest in human MDA-MB-231 cells assessed as accumulation at S phase at IC50 measured after 48 hrs by propidium iodide staining based FACS analysis (reference value: 9.2+/-0.3 %); format: functional
# MDA-MB-231 [20] = test: Cytotoxicity against human MDA-MB-231 cells assessed as apoptotic nuclei at 2.5 uM by DAPI staining based fluorescence microscopic analysis (reference value: 11.11 to 14.29%); format: functional
# [21] = Downregulation of Cdc25A protein expression in human MDA-MB-231cells assessed as fold change in Cdc25A expression at IC50 after 48 hrs by Western blot analysis relative to control; format: functional
# MDA-MB-231 [22] = test: Cytotoxicity against human MDA-MB-231 cells assessed as increase in deformation and shrinkage of nuclei by DAPI staining-based fluorescence microscopic analysis; format: functional, cell-based; settings: dose 0.5-2.5 µM
# MDA-MB-231 [23] = test: Induction of apoptosis in human MDA-MB-231 cells assessed as upregulation of Bax level by measuring fold change in Bax expression by Western blot analysis relative to control; format: functional
# MDA-MB-231 [24] = test: Cytotoxicity against human MDA-MB-231 cells assessed as normal nuclei at 2.5 uM by DAPI staining based fluorescence microscopic analysis (reference value: 85.71 to 88.89%); format: functional
# MDA-MB-231 [25] = test: Cytotoxicity against human MDA-MB-231 cells assessed as reduction in cell survival by clonogenic assay; format: functional, cell-based
# MDA-MB-231 [26] = test: Cytotoxicity against human MDA-MB-231 cells assessed as reduction in cell viability incubated for 48 hrs by MTT assay; format: functional, cell-based; settings: Homo sapiens, MDA-MB-231, 48 h; read-out: IC50
# MDA-MB-231 [27] = test: Cytotoxicity against human MDA-MB-231 cells assessed as apoptotic nuclei at 2 uM by DAPI staining based fluorescence microscopic analysis (reference value: 4.17 to 14.29%); format: functional
# [28] = Upregulation of p53 protein expression in human MDA-MB-231cells assessed as fold change in p53 expression at IC50 after 48 hrs by Western blot analysis relative to control; format: functional
# MDA-MB-231 [29] = test: Cell cycle arrest in human MDA-MB-231 cells assessed as accumulation at G2/M phase at IC50 measured after 48 hrs by propidium iodide staining based FACS analysis (reference value: 30.8+/-1.6 %); format: functional
# MDA-MB-231 [30] = test: Cytotoxicity against human MDA-MB-231 cells assessed as apoptotic nuclei at 0.5 uM by DAPI staining based fluorescence microscopic analysis (reference value: 11.11 to 14.29%); format: functional
# MDA-MB-231 [31] = test: Cytotoxicity against human MDA-MB-231 cells assessed as normal nuclei at 1 uM by DAPI staining based fluorescence microscopic analysis (reference value: 85.71 to 95.83%); format: functional
# MDA-MB-231 [32] = test: Cell cycle arrest in human MDA-MB-231 cells assessed as accumulation at G1 phase at IC50 measured after 48 hrs by propidium iodide staining based FACS analysis (reference value: 59.3+/-2.9 %); format: functional
# HEK-293T = test: Cytotoxicity against human HEK293T cells assessed as reduction in cell viability incubated for 48 hrs by MTT assay; format: cell-based
# MCF7 = test: Cytotoxicity against human MCF7 cells assessed as reduction in cell viability incubated for 48 hrs by MTT assay; format: functional, cell-based; settings: Homo sapiens, MCF7, 48 h; read-out: IC50
# MDA-MB-231 [33] = test: Cell cycle arrest in human MDA-MB-231 cells assessed as accumulation at sub G1 phase at IC50 measured after 48 hrs by propidium iodide staining based FACS analysis (reference value: 0.7+/-0.2 %); format: functional
# MDA-MB-231 [34] = test: Genotoxicity in human MDA-MB-231 cells assessed as induction of DNA damage at 3 uM incubated for 24 hrs by comet assay; format: functional, cell-based
# MDA-MB-231 [35] = test: Cytotoxicity against human MDA-MB-231 cells assessed as normal nuclei at 5 uM by DAPI staining based fluorescence microscopic analysis (reference value: 93.33 to 95.83%); format: functional
# MDA-MB-231 [36] = test: Cytotoxicity against human MDA-MB-231 cells assessed as apoptotic nuclei at 3 uM by DAPI staining based fluorescence microscopic analysis (reference value: 4.17 to 6.67%); format: functional
# MDA-MB-231 [37] = test: Cytotoxicity against human MDA-MB-231 cells assessed as normal nuclei at 3 uM by DAPI staining based fluorescence microscopic analysis (reference value: 93.33 to 95.83%); format: functional
# MDA-MB-231 [38] = test: Cytotoxicity against human MDA-MB-231 cells assessed as apoptotic nuclei at 5 uM by DAPI staining based fluorescence microscopic analysis (reference value: 4.17 to 6.67%); format: functional
# MDA-MB-231 [39] = test: Cytotoxicity against human MDA-MB-231 cells assessed as normal nuclei at 4 uM by DAPI staining based fluorescence microscopic analysis (reference value: 93.33 to 95.83%); format: functional
# MDA-MB-231 [40] = test: Cytotoxicity against human MDA-MB-231 cells assessed as apoptotic nuclei at 4 uM by DAPI staining based fluorescence microscopic analysis (reference value: 4.17 to 6.67%); format: functional
smiles,measurement,setting,value
COc1cccc(NC2=CC(=O)c3ccccc3C2=O)c1,fold change (FC),[1],0.3
same,fold change (FC),[2],2.1
same,fold change (FC),MDA-MB-231 [3],0.3
same,Activity,MDA-MB-231 [4],82.05%
same,fold change (FC),[5],0.7
same,fold change (FC),[6],1.8
same,Activity,MDA-MB-231 [7],5.3%
same,IC50,[8],2.1 µM
same,Activity,MDA-MB-231 [9],51.28%
same,Activity,MDA-MB-231 [10],50.1%
same,Activity,MDA-MB-231 [11],45.45%
same,Activity,MDA-MB-231 [12],26.1%
same,Activity,MDA-MB-231 [13],36.11%
same,Activity,MDA-MB-231 [14],18.5%
same,fold change (FC),MDA-MB-231 [15],0.6
same,Activity,MDA-MB-231 [16],48.72%
same,fold change (FC),[17],0.4
same,Activity,MDA-MB-231 [18],Active
same,IC50,MCF-10A,90 µM
same,Activity,MDA-MB-231 [19],20.2%
same,Activity,MDA-MB-231 [20],80.95%
same,fold change (FC),[21],0.4
same,Activity,MDA-MB-231 [22],Dose-Dependent Effect
same,fold change (FC),MDA-MB-231 [23],1.6
same,Activity,MDA-MB-231 [24],19.05%
same,IC50,MDA-MB-231 [25],1.5 µM
same,IC50,MDA-MB-231 [26],2.1 µM
same,Activity,MDA-MB-231 [27],54.55%
same,fold change (FC),[28],2.1
same,Activity,MDA-MB-231 [29],23.3%
same,Activity,MDA-MB-231 [30],17.95%
same,Activity,MDA-MB-231 [31],63.89%
same,Activity,MDA-MB-231 [32],44.7%
same,IC50,HEK-293T,4.5 µM
same,IC50,MCF7,2 µM
same,Activity,MDA-MB-231 [33],11.8%
O=C1C=C(Nc2cccc3ccccc23)C(=O)c2ccccc21,Activity,MDA-MB-231 [34],Active
same,fold change (FC),MDA-MB-231 [3],0.8
same,Activity,MDA-MB-231 [35],11.11%
same,IC50,[8],5.8 µM
same,Activity,MDA-MB-231 [11],71.43%
same,Activity,MDA-MB-231 [13],11.9%
same,fold change (FC),MDA-MB-231 [15],0.4
same,IC50,MCF-10A,101 µM
same,Activity,MDA-MB-231 [36],55.56%
same,Activity,MDA-MB-231 [22],Dose-Dependent Effect
same,fold change (FC),MDA-MB-231 [23],2.3
same,Activity,MDA-MB-231 [37],44.44%
same,IC50,MDA-MB-231 [25],2.4 µM
same,Activity,MDA-MB-231 [38],88.89%
same,IC50,MDA-MB-231 [26],3.2 µM
same,Activity,MDA-MB-231 [27],28.57%
same,Activity,MDA-MB-231 [39],25.64%
same,Activity,MDA-MB-231 [31],88.1%
same,IC50,HEK-293T,5.6 µM
same,IC50,MCF7,3.1 µM
same,Activity,MDA-MB-231 [40],74.36%
